Here are results for 14 compounds from patent US11371077B2, “High throughput cell-based screening for aptamers” (MeiraGTx UK II Limited, priority 2016, dated 2022).

Counter-ions that a name gives are not always drawn. Like-named read-outs stand apart in the source and are kept apart here.

Common to all, as to format: cell-based
Data set [1] relates to xpt-G17 riboswitch. Kind of data set: Luciferase reporter assay, xpt-G17 riboswitch, transfected HEK 293 cells. As to conditions: for fold induction at 100 µM: Homo sapiens, HEK293, xpt-G17 riboswitch; for fold induction at 100 µM / Fold Induction of luciferase activity: Prestwick library compounds at 100 μM, HEK 293; for fold induction at 100 µM / response of guanine riboswitch xpt-G17 to compound (FIG. 1e) / Fold Induction of luciferase activity: preliminary screen; for response of guanine riboswitch xpt-G17 to compound (FIG. 1e): Prestwick library at 100 μM; for Fold Induction of luciferase activity: xpt-G17 riboswitch. The text has this:
(§1) A truncated human beta-globin intron sequence was synthesized and inserted in the coding sequence of a firefly luciferase gene. A mutant human DHFR exon 2 was synthesized and inserted in the middle of this truncated beta-globin intron sequence using Golden gate cloning strategy. Aptamers including xpt-G/A^1, ydhl-G/A^2, yxj^3, add^4, gdg6-G/A^5 (citations for the aptamers are incorporated herein by reference) were synthesized as oligonucleotides (“oligos”) with 4 nucleotide overhang at the 5′ end that are complementary to two different BsaI sites individually (IDT), annealed and ligated to BsaI-digested mDHFR-Luci-acceptor vector.
(§2) 3.5×10^4 HEK 293 cells were plated in a 96-well flat bottom plate the day before transfection. Plasmid DNA (500 ng) was added to a tube or a 96-well U-bottom plate. Separately, TransIT-293 reagent (Mirus; 1.4 μL) was added to 50 μL Opti-mem I media (Life Technologies), and allowed to sit for 5 minutes at room temperature (RT). Then, 50 μL of this diluted transfection reagent was added to the DNA, mixed, and incubated at RT for 20 min. Finally, 7 μL of this solution was added to a well of cells in the 96-well plate.
(§3) 24 hours after media change, plates were removed from the incubator, and equilibrated to RT for several minutes on a lab bench, then aspirated. Glo-lysis buffer (Promega, 100 μL, RT) was added, and the plates maintained at RT for at least 5 minutes. Then, the well contents were mixed by 50 μL trituration, and 20 μL of each sample was mixed with 20 μL of bright-glo reagent (Promega) that had been diluted to 10% in glo-lysis buffer. 96 wells were spaced on an opaque white 384-well plate. Following a 5 min incubation at RT, luminescence was measured using a Tecan machine with 500 mSec read time. The luciferase activity was expressed as mean relative light unit (RLU)±S.D., and fold induction was calculated as the luciferase activity obtained with guanine treatment divided by luciferase activity obtained without guanine treatment.

Data set [2] concerns gdg6-A8 riboswitch. Kind of data set: Luciferase reporter assay, gdg6-A8 riboswitch, transfected HEK 293 cells. The note with it: for fold induction at 100 µM: Homo sapiens, HEK293, gdg6-A8 riboswitch, Prestwick library compounds at 100 μM, HEK 293; for Fold Induction of luciferase activity: 100 µM.
Source text: (§4) Riboswitches were constructed as described in PCT/US2016/016234 (in particular Examples 3 to 6), incorporated herein by reference. A truncated human beta-globin intron sequence was synthesized and inserted in the coding sequence of a firefly luciferase gene. A mutant human DHFR exon 2 was synthesized and inserted in the middle of this truncated beta-globin intron sequence using Golden gate cloning strategy. Aptamers including xpt-G/A^1, ydhl-G/A^2, yxj^3, add^4, gdg6-G/A^5 (citations for the aptamers are incorporated herein by reference) were synthesized as oligonucleotides (“oligos”) with 4 nucleotide overhang at the 5′ end that are complementary to two different BsaI sites individually (IDT), annealed and ligated to BsaI-digested mDHFR-Luci-acceptor vector.
as §2, §3
A general note: In a reporter assay the amount or activity of a reporter protein is the signal.

The test system of data set [3] is yxj-A6 riboswitch. Kind of data set: cells. As to conditions: for fold induction at 100 µM: Homo sapiens.
Source text: as §1, §2
as §3, with “The luciferase activity was expressed as mean relative light unit (RLU)±S.D., and fold induction was calculated as the luciferase activity obtained with guanine treatment divided by luciferase activity obtained without guanine treatment.” left out

For data set [4], the system named is add-A6 riboswitch. Description: cells. As to conditions: for fold induction at 100 µM: Homo sapiens.
Source text: as §4, §2, §3

The test system of data set [5] is xpt-A8 riboswitch. Kind of data set: cells. As to conditions: for fold induction at 100 µM: Homo sapiens.
Source text: as §4, §2, §3

In data set [6] the test system is ydhl-A6 riboswitch. Description: Luciferase reporter assay, ydhl-A6 riboswitch, transfected HEK 293 cells. As to conditions: Homo sapiens.
Source text: as §1
(§5) 3.5×10^4 HEK 293 cells were plated in a 96-well flat bottom plate the day before transfection. Plasmid DNA (500 ng) was added to a tube or a 96-well U-bottom plate. […] Then, 50 μL of this diluted transfection reagent was added to the DNA, mixed, and incubated at RT for 20 min. Finally, 7 μL of this solution was added to a well of cells in the 96-well plate.
as §3

Data set [7] relates to gdg6-G8 riboswitch. Description: Luciferase reporter assay, gdg6-G8 riboswitch, transfected HEK 293 cells. As to conditions: for fold induction at 100 µM: Homo sapiens, HEK293, gdg6-G8 riboswitch, Prestwick library compounds at 100 μM, HEK 293; for Fold Induction of luciferase activity: 100 µM.
Source text: as §4, §2, §3

In data set [8] the test system is add-G6 riboswitch. Kind of data set: cells. As to conditions: for fold induction at 100 µM: Homo sapiens.
Source text: as §1, §5
as §3, with “The luciferase activity was expressed as mean relative light unit (RLU)±S.D., and fold induction was calculated as the luciferase activity obtained with guanine treatment divided by luciferase activity obtained without guanine treatment.” left out

Data set [9] relates to ydhl-G8 riboswitch. Kind of data set: Luciferase reporter assay, ydhl-G8 riboswitch, transfected HEK 293 cells. The note with it: for fold induction at 100 µM: Homo sapiens.
Source text: as §1, §5, §3

Data set [10] has as its system riboswitches with guanine aptamers. Description: Dose responses of constructs with different aptamer based riboswitches (FIG. 1b). As to conditions: mammalian cells.
Source text: as §1
3.5×10^4 HEK 293 cells were plated in a 96-well flat bottom plate the day before transfection. Plasmid DNA (500 ng) was added to a tube or a 96-well U-bottom plate. […] Then, 50 μL of this diluted transfection reagent was added to the DNA, mixed, and incubated at RT for 20 min. […]
24 hours after media change, plates were removed from the incubator, and equilibrated to RT for several minutes on a lab bench, then aspirated. […] Following a 5 min incubation at RT, luminescence was measured using a Tecan machine with 500 mSec read time. The luciferase activity was expressed as mean relative light unit (RLU)±S.D., and fold induction was calculated as the luciferase activity obtained with guanine treatment divided by luciferase activity obtained without guanine treatment.

The mark [11] stands for this setting: HEK293, read-out: Fold Induction of luciferase activity.
The mark [12] stands for this setting: yxj-A6 riboswitch, Prestwick library compounds at 100 μM, HEK 293.
Setting [13] is: add-A6 riboswitch, Prestwick library compounds at 100 μM, HEK 293.
Where [14] appears, read: add-G6 riboswitch, Prestwick library compounds at 100 μM, HEK 293.
Where [15] appears, read: ydhl-G8 riboswitch, Prestwick library compounds at 100 μM, HEK 293.
The mark [16] stands for this setting: HEK293, yxj-A6 riboswitch, Prestwick library compounds at 100 μM, HEK 293, read-out: Fold Induction of luciferase activity.
Setting [17] is: HEK293, add-A6 riboswitch, Prestwick library compounds at 100 μM, HEK 293, read-out: Fold Induction of luciferase activity.
[18] abbreviates: HEK293, xpt-A8 riboswitch, Prestwick library compounds at 100 μM, HEK 293, read-out: Fold Induction of luciferase activity.
The mark [19] stands for this setting: HEK293, add-G6 riboswitch, Prestwick library compounds at 100 μM, HEK 293, read-out: Fold Induction of luciferase activity.

On to `Nc1nc2nn[nH]c2c(=O)[nH]1` [8-Azaguanine], for which the fold induction at 100 µM was 131 in data set [1]; 306 in data set [2]; 55.6 in data set [3] (setting [11]); 22.1 in [4] (setting [11]); 95.1 in [5] (setting [11]); 3.7 in data set [6] (HEK293, read-out: Fold Induction of luciferase activity, ydhl-A6 riboswitch, Prestwick library compounds at 100 μM, HEK 293). The values for the fold induction at 100 µM in data set [7], in data set [8] (setting [11]) and in data set [9] (setting [11]) were 42.3, 47.9 and 35.6, respectively. For the same compound, the “response of guanine riboswitch xpt-G17 to compound (FIG. 1e)” value in data set [1] is listed as “responded”.

For `CC(=O)c1ccc2c(c1)N(CCCN(C)C)c1ccccc1S2.O=C(O)/C=C\C(=O)O` [Acetopromazine maleate salt], the “Fold Induction of luciferase activity” value in data set [1] is listed as 4.5 fold; in data set [2], 8.6 fold; in [3] (setting [12]), 3.1 fold; in data set [4] (setting [13]), 3.5 fold; in data set [7], 3.2 fold; in data set [8] (setting [14]), 5.0 fold. For the same compound, the “Fold Induction of luciferase activity” value in [9] (setting [15]) is recorded as 3.9 fold.

For `Cn1cnc([N+](=O)[O-])c1Sc1ncnc2nc[nH]c12` [Azathioprine], the fold induction at 100 µM in data set [1] was 6.2; in data set [2], 19.9; in [3] (setting [16]) it was 6.6; in data set [4] (setting [17]), 6.5; in data set [5] (setting [18]), 5.9; in data set [7], 16.2. Also, in data set [8] (setting [19]), the fold induction at 100 µM was found to be 11.4.

On to `COC1=C(OC)C(=O)C(CCCCCCCCCCO)=C(C)C1=O` [Idebenone], for which the fold induction at 100 µM in data set [1] turned out to be 3.3; in data set [6] (setting [11]), 3.5; in data set [8] (setting [19]), 6.7.

Turning to `S=c1nc[nH]c2nc[nH]c12` [Mercaptopurine], the fold induction at 100 µM amounted to 17.2 in data set [2]; 10 in data set [3] (setting [16]); 15 in data set [4] (setting [17]); 3.4 in data set [5] (setting [18]); 16.2 in data set [7]; 14.3 in data set [8] (setting [19]). Moreover, in data set [9] (setting [11]), the fold induction at 100 µM was 3.6.

In the case of `CN1CCC(=C2c3ccccc3Sc3ccccc32)CC1` [Pimethixene maleate], the fold induction at 100 µM was 4.7 in [1]; 9.2 in data set [2]; 4.9 in data set [3] (setting [16]); 4.2 in data set [4] (setting [17]); 3.3 in data set [5] (setting [18]); 5.1 in [7]. The fold induction at 100 µM in data set [8] (setting [19]) was determined as 6.6.

On to `CN(C)CCCN1c2ccccc2Sc2ccccc21` [Promazine hydrochloride], for which the fold induction at 100 µM stood at 3.7 in [1]; 12.6 in data set [2]; 6.6 in [3] (setting [11]); 10.5 in data set [4] (setting [11]); 4.1 in [5] (setting [11]); 6.2 in data set [7]. The fold induction at 100 µM in [8] (setting [11]) was 5.4; in [9] (HEK293, ydhl-G8 riboswitch, Prestwick library compounds at 100 μM, HEK 293, read-out: Fold Induction of luciferase activity) it was 5.2.

For the compound `CC(CN1c2ccccc2Sc2ccccc21)N(C)C` (stereo not shown) [Promethazine hydrochloride], the fold induction at 100 µM came out at 5.3 in data set [1]; 4.8 in data set [2]; 7.9 in [3] (setting [16]); 4.5 in data set [4] (setting [17]); 5.4 in data set [5] (setting [18]); 6.5 in data set [7]. Further, the fold induction at 100 µM in data set [8] (setting [19]) was 6.7.

Turning to `Nc1ccc(S(=O)(=O)Nc2cnc3ccccc3n2)cc1` [Sulfaquinoxaline sodium], the fold induction at 100 µM in [3] (setting [16]) was 3.4; in data set [4] (setting [17]), 3.3.

Regarding `Nc1nc2nc[nH]c2c(=O)[nH]1` [guanine], in data set [1], the “response of guanine riboswitch xpt-G17 to compound (FIG. 1e)” value is recorded as “responded”. Besides, the “induction fold of luciferase reporter in response to guanine” value in data set [1] (xpt-G17, high concentration of guanine) is 2000 fold. Further, the “response of riboswitches with guanine aptamers (reporter gene expression, FIG. 1b)” value in data set [10] is reported as “responds”.

On to `Nc1nc2c(ncn2[C@@H]2O[C@H](CO)[C@@H](O)[C@H]2O)c(=O)[nH]1` [guanosine], for which the “response of riboswitches with guanine aptamers (reporter gene expression, FIG. 1b)” value in data set [10] is given as “responds”.

As to Trimeprazine tartrate, the “Fold Induction of luciferase activity” value in [1] stood at 4.9 fold; in [2], 8.7 fold; in [3] (setting [12]) it was 7.0 fold; in data set [4] (setting [13]), 4.0 fold; in data set [7] it was 6.2 fold; in data set [8] (setting [14]), 6.2 fold. Besides, the “Fold Induction of luciferase activity” value in data set [9] (setting [15]) turned out to be 5.0 fold.

As to Trimipramine maleate salt, the “Fold Induction of luciferase activity” value stood at 5.3 fold in [2]; 3.3 fold in data set [3] (setting [12]); 3.4 fold in data set [4] (setting [13]); 3.3 fold in data set [7]; 3.4 fold in [8] (setting [14]).

As to thioguanosine, the “Fold Induction of luciferase activity” value in data set [1] amounted to 21.0 fold; in data set [2], 20.1 fold; in data set [3] (setting [12]) it was 10.2 fold; in data set [4] (setting [13]), 5.9 fold; in [5] (xpt-A8 riboswitch, Prestwick library compounds at 100 μM, HEK 293), 11.8 fold; in [7], 15.9 fold. The entries for the “Fold Induction of luciferase activity” value in [8] (setting [14]) and in data set [9] (setting [15]) were 7.9 fold and 7.5 fold, respectively.
